Entries after “also recorded” stand apart in the source; their conditions may differ.
Assays:
UM-C4 colon tumor cells = test: UM-C4 xenograft, combination with fluorouracil; format: in vivo, NOD/SCID mice; details: day 46
Procedure: In certain embodiments, anti-DLL4 antibodies were analyzed in combination with chemotherapy for the ability to reduce growth of UM-C4 colon tumor cells in vivo. Dissociated UM-C4 cells (10,000 per animal) were injected subcutaneously into the right flank region of 6-8 week old NOD/SCID mice. The day after tumor cell injection, animals were injected intraperitoneal (i.p.) with 10 mg/kg murine 21M18 anti-DLL4 antibodies or PBS two times per week for the duration of the experiment with or without concurrent treatment with the anti-metabolite chemotherapy agent fluorouracil (5-FU) administered one time per week. Tumor growth was monitored weekly until growth was detected, after which point tumor growth was measured twice weekly for a total of 8 weeks.

human DLL4 = human DLL4 (Homo sapiens, UniProt Q9NR61); test: OMP-C11 tumor cell colonies overlaid with 3T3-DLL4 cells, HES1:ATOH1 expression; format: cell-based; set-up: expressed in transfected cells; host or cells: 3T3 cells; details: 5 μM
Procedure: In some embodiments, mouse lineage-depleted OMP-C11 tumor cell colonies were established using culture conditions known to maintain tumorigenic cells in vitro. These tumor cell colonies were overlaid with 3T3 cells without (3T3) or including human DLL4 (DLL4) overexpressed on the cell surface in the presence or absence of 10 μg/mL murine 21M18 or 5 μM gamma-secretase inhibitor (GSI; i.e. DBZ). A no overlay control was also included.

C8 cells = test: Established C8 colon tumors, combination with Irinotecan; format: in vivo, NOD/SCID mice; details: treatment from approximately 60 mm^3; 21M18 10 mg/kg two times per week; Irinotecan 7.5 mg/kg one time per week
Procedure: In some embodiments, combination anti-DLL4 murine 21M18 and Irinotecan treatment was used to treat established colon tumors. Dissociated C8 cells (10,000 per animal) were injected subcutaneously into the right flank region of 6-8 week old NOD/SCID mice. When the injected cells produced tumors of approximately 60 mm^3, treatment was commenced. Animals were injected intraperitoneal (i.p.) with 10 mg/kg murine 21M18 anti-DLL4 antibodies or a control two times per week for the duration of the experiment with or without concurrent treatment with the chemotherapy agent Irinotecan administered one time per week at a dosage of 7.5 mg/kg.

OMP-C8 tumor cells = test: OMP-C8 colon tumor xenograft growth prevention, combination with Irinotecan; format: in vivo, NOD/SCID mice; details: 21M18 10 mg/kg twice per week; Irinotecan 7.5 mg/kg weekly; n=10 per group
Procedure: In certain embodiments, anti-DLL4 antibodies were tested in combination with the chemotherapeutic Irinotecan. In some embodiments, dissociated OMP-C8 tumor cells (10,000 per animal) were injected subcutaneously into the right flank region of 6-8 week old NOD/SCID mice. The day after tumor cell injection, animals were injected intraperitoneal (i.p.) with 10 mg/kg murine 21M18 anti-DLL4 antibodies or control antibody two times per week for the duration of the experiment with or without concurrent treatment with the chemotherapy agent Irinotecan administered one time per week at a dosage of 7.5 mg/kg. Tumor growth was monitored weekly until growth was detected, after which point tumor growth was measured twice weekly. […] In certain embodiments, humanized H7L2 21M18 anti-DLL4 antibodies were tested in combination with Irinotecan. In some embodiments, dissociated C8 tumor cells (10,000 per animal) were injected subcutaneously into the right flank region of 6-8 week old NOD/SCID mice. […] Tumor growth was monitored weekly until growth was detected, after which point tumor growth was measured twice weekly.

Sequence of human DLL4 (Q9NR61 27-685): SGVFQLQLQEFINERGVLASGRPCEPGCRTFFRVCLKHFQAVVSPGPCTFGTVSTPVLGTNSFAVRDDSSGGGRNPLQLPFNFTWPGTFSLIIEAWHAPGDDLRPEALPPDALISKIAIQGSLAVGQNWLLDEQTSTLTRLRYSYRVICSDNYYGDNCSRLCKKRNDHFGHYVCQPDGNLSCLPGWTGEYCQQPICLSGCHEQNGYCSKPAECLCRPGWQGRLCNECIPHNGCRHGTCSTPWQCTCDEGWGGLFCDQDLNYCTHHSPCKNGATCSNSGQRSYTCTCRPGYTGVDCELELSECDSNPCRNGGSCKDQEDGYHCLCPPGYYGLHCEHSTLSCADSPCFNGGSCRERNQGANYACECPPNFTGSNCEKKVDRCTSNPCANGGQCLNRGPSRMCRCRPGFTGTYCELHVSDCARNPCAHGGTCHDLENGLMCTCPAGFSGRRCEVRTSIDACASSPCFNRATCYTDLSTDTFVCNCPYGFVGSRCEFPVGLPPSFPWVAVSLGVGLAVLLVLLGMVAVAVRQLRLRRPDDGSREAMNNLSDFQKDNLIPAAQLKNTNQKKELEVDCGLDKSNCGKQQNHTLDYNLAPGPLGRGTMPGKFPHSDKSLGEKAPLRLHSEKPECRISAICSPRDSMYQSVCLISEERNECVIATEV

O=c1[nH]cc(F)c(=O)[nH]1 [5-FU, fluorouracil, reference compound]
tumor size compared to control (UM-C4 colon tumor cells): reduced tumor size

C[C@H](NC(=O)Cc1cc(F)cc(F)c1)C(=O)N[C@@H]1C(=O)N(C)c2ccccc2-c2ccccc21 [GSI, reference compound]
DLL4-induced Notch target gene changes (ratio of HES1:ATOH1) (human DLL4): inhibited DLL4-induced Notch target gene changes

CCc1c2c(nc3ccc(OC(=O)N4CCC(N5CCCCC5)CC4)cc13)-c1cc3c(c(=O)n1C2)COC(=O)[C@]3(O)CC [Irinotecan]
growth of established colon tumors (C8 cells): reduced tumor volume
tumor growth after treatment cessation on day 56 (OMP-C8 tumor cells): tumor growth continued or accelerated in most animals; also recorded: growth continued after cessation of treatment on day 56 (* arrow) in all but two treated animals

Source: US9228020B2, “Compositions and methods for diagnosing and treating cancer” (OncoMed Pharmaceuticals, Inc., priority 2006, dated 2016)
